Data set [1] relates to N-linked glycosylation. In words: D54-ERLucT cell based luciferase assay for inhibition of N-linked glycosylation. From the text:
(§1) The HTS approach using the bioluminescent N-linked glycosylation reporter (CCR 2011) in D54-ERLucT and D54-LucT cells has been previously described (Bennett, et al., Transl Oncol 2013, 6, 382-391). Briefly, the primary cell-based screen detects site occupancy of NLG sequons using a modified luciferase protein translated into the ER. […] The methodology for the primary (D54-ERlucT), secondary (D54-LucT), and tertiary (luciferase inhibition) screens as well and toxicity assays with CelltitreGlo are deposited in Pubchem (AID 588693).
The primary screen was developed in the D54 glioma cell line using a modified P. pyralis luciferase gene (ER-LucT) that is ER translated and glycosylated at three N-linked glycosylation consensus sequences. Glycosylation of the reporter inactivates luciferase enzymatic activity providing a robust methodology to detect inhibition of this process. D54 cells expressing a non-ER translated luciferase (LucT) insensitive to inhibition of N-linked glycoysation were used as a secondary screen for false positives. The primary screen was performed in duplicate and values were normalized to the average of positive control wells (Tunicamycin) minus averaged neutral vehicle treated wells per run. Compounds with replicate activity greater than three standard deviations above the mean average of control wells were selected for further study. A subset of 1,845 compounds met this criterion, and were advanced to simultaneous retesting in both the primary screen and a secondary (false positive) cell-based screen. […] Compounds were further triaged from consideration by consulting the Pubchem bioassay database and deprioritizing compounds showing a promiscuity rate higher than 5% across assays or by removing PAINS scaffolds (Baell, et al., J Med Chem 2010, 53, 2719-2740). Remaining compounds were assessed by medicinal chemistry review to score synthetic tractability and known issues with instability, poor solubility, or toxicity. This analysis yielded 39 compounds that were tested in a cell-free assay to detect luciferase inhibitors (Auld, et al., Proc Natl Acad Sci USA 2010, 107, 4878-4883) and by western blot analysis to detect gel mobility changes of the luciferase reporter, consistent with inhibition of N-linked glycosylation. This approach identified one aminobenzamidosulfonamide compound that blocked N-linked glycosylation.
(§2) To better understand the connection between structure and activity, analogs were prepared and tested in the D54-ERLucT cell based assay for inhibition of N-linked glycosylation (FIG. 1B). The assay was used to estimate and compare AC40 values among analogs and to guide the design of improved compounds that inhibited N-linked glycosylation. This effort generated 36 unique compounds with modifications to the amine component of the sulfonamide functionality (red), the pyrrolidine moiety (blue) or the methylaminothiazole group (green). Generally, incorporation of larger sulfonamides (i.e., larger secondary amines appended to the sulphone) was not well tolerated, resulting in erosion of potency (7 analogs). However, steric interactions could be mitigated by the introduction of a hydrogen bond accepting oxygen in a larger cyclic amine. Thus, morpholine was determined to be an acceptable surrogate for the dimethylamine component of the sulfonamide (FIGS. 1A-1D). The pyrrolidine group (blue) was replaced with various alkyl, cycloalkyl, and amine groups (7 compounds). The aminothiazole moiety was derivatized most extensively of all three regions (green highlighted area, 22 analogs). […] Analogs with the highest potency in the luciferase assay were retested with western blot analysis to insure that measurements of luciferase activation corresponded to loss of N-linked glycosylation.

Data set [2] can be described thus: Celltiter Glo viability assay, HepG2. The class given is cell-based. The settings on record: human, HepG2 cells; HEPG2, 72 h of compound exposure; read-out: Cytotoxicity Assay Mean EC50.
Source text: as §1, §2
A general note: In ATP-based viability assays light output follows the ATP content of the culture.

In data set [3] the test system is HepG2 cells. In words: Celltiter Glo viability assay, HepG2. The class given is cell-based. The settings on record: HEPG2 EC50 over NLG AC40.
Source text: as §1, §2

In data set [4] the test system is H2444 cells. In words: MTT proliferation assay, H2444. The class given is cell-based. The settings on record: H2444, 10 μM NGI-1, 5 d. As to the method:
FIGS. 4A-4H illustrate the finding that NGI-1 blocks RTK driven proliferation. FIG. 4A illustrates western blot analysis of EGFR phosphorylation (Y1173) and gel mobility in PC9 (EGFR-mutant) and A549 (k-ras mutant) NSCLC cells after 10 μM NGI-1 treatment for 24 h. […] Actin expression was used as a control for protein loading. FIG. 4B illustrates MTT assays results of PC9 following treatment with 10 μM NGI-1 or 1 μM tunicamycin for a total of 5 d. Relative proliferation id reported in fold increase from day 0. FIG. 4C illustrates MTT assays results of A549 following treatment with 10 μM NGI-1 or 1 μM tunicamycin for a total of 5 d. Relative proliferation id reported in fold increase from day 0. FIG. 4D illustrates protein phosphorylation profiles of PC9 cells analyzed by phospho-protein array to assess the response of PC9 to 10 μM NGI-1 for 24 h. FIG. 4E illustrates protein phosphorylation profiles of A549 cells analyzed by phospho-protein array to assess the response of A549 to 10 μM NGI-1 for 24 h. […]
Growth rates were determined by CellTiter 96 NonRadioactive Cell Proliferation Assay (Promega; Madison, Wis. USA) according to the manufacturer's directions. […] Cell numbers were estimated after 0, 3, and 5 days by adding MTT [(3-(4,5-Dimethylthiazol-2-yl)-2,5-diphenyltetrazolium bromide] reagent to the wells 4 hours before taking the spectrophotometric reading (absorbance at 570 nm).
For orientation: Tetrazolium assays rely on reduction of a dye to a coloured formazan, in cell work by metabolically active cells.

[5] abbreviates: D54-ERLucT cells, luciferase activation.

A word on the IC50: it is the concentration that gives 50% inhibition. As usually defined, the EC50 is the midpoint of the concentration-response curve. Turning to `Cc1cnc(NC(=O)c2cc(S(=O)(=O)N(C)C)ccc2N2CCCC2)s1` [NGI-1, 5-(N,N-Dimethylsulfamoyl)-N-(5-methylthiazol-2-yl)-2-(pyrrolidin-1-yl)benzamide], in data set [1] (setting [5]), the “NLG Inhibition ASSAY Potency Mean AC40” value was 170 nM and the “NLG Inhibition max act, %” value came to 321.4%. Besides, the half-inhibitory concentration (IC50) in data set [1] (luminescent activity, estimated, FIG. 1C, read-out: IC50 in intact D54 ER-LucT cells in culture) was 1060 nM. Besides, the EC50 at 72 h in data set [2] was over 30000 nM. Moreover, the “Selectivity (EC50/AC40)” value in data set [3] was over 172. For the same molecule, in data set [4], the “effect on proliferation, MTT” value was “insensitive to NGI-1”.

The values are drawn from patent US11219625B2, “Inhibitors of N-linked glycosylation and methods using same” (YALE UNIVERSITY, priority 2015, dated 2022).
